Data: the supplement of paper PMC5762512

Tests used:
Assay in all cases: IC50 cell viability (Alamar Blue, 96 h)
[1] = tested on: 10326
Description: (§1)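 Cells in log-phase growth were seeded in 96-well plates and treated with drug for 96 h at 37°C using 8-point serial dilutions from 0.0025 to 10 µM. Viability was read by Alamar Blue fluorescence after 6 h and normalised to positive and vehicle (DMSO) controls. IC50 values were fitted in ActivityBase; the value given is the mean of two independent experiments.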

[2] = tested on: 11060
Description: as §1

[3] = tested on: 14169
Description: as §1

[4] = tested on: 8645
Description: as §1

[5] = tested on: A549
Description: as §1

[6] = tested on: CAKI-1
Description: as §1

[7] = tested on: HCC2429
Description: as §1

[8] = tested on: HS-27
Description: as §1

[9] = tested on: P896-CL
Description: as §1

[10] = tested on: PER-403
Description: as §1

[11] = tested on: PER-535
Description: as §1

[12] = tested on: PER-536
Description: as §1

[13] = tested on: PER-624
Description: as §1

[14] = tested on: PER-704
Description: as §1

[15] = tested on: PER-712
Description: as §1

[16] = tested on: PER-891
Description: as §1

[17] = tested on: RPMI2650
Description: as §1

[18] = tested on: TC797
Description: as §1

[19] = tested on: TY82
Description: as §1

[20] = tested on: WI-38
Description: as §1

Structure (SMILES)	IC50 cell viability [1] [nM]	IC50 cell viability [2] [nM]	IC50 cell viability [3] [nM]	IC50 cell viability [4] [nM]	IC50 cell viability [5] [nM]	IC50 cell viability [6] [nM]	IC50 cell viability [7] [nM]	IC50 cell viability [8] [nM]	IC50 cell viability [9] [nM]	IC50 cell viability [10] [nM]	IC50 cell viability [11] [nM]	IC50 cell viability [12] [nM]	IC50 cell viability [13] [nM]	IC50 cell viability [14] [nM]	IC50 cell viability [15] [nM]	IC50 cell viability [16] [nM]	IC50 cell viability [17] [nM]	IC50 cell viability [18] [nM]	IC50 cell viability [19] [nM]	IC50 cell viability [20] [nM]
CC(=O)O[C@@]12CO[C@@H]1C[C@H](O)[C@@]1(C)C(=O)[C@H](O)C3=C(C)[C@@H](OC(=O)[C@H](O)[C@@H](NC(=O)OC(C)(C)C)c4ccccc4)C[C@@](O)([C@@H](OC(=O)c4ccccc4)[C@H]21)C3(C)C [Docetaxel]	< 2.5	< 2.5	< 2.5	< 2.5	< 2.5	5000	< 2.5	< 2.5	3.08	< 2.5	6.25	16.4	< 2.5	4.11	3.2	> 10000	> 10000	3.88	9.64	2.82
C/C(=C\c1csc(C)n1)[C@@H]1C[C@@H]2O[C@]2(C)CCC[C@H](C)[C@H](O)[C@@H](C)C(=O)C(C)(C)[C@@H](O)CC(=O)O1 [Epothilone B]	< 2.5	< 2.5	< 2.5	< 2.5	< 2.5	16.2	< 2.5	< 2.5	3.22	< 2.5	3.27	7.59	< 2.5	3.8	< 2.5	5010	> 10000	3.41	9.79	< 2.5
COc1cccc2c1C(=O)c1c(O)c3c(c(O)c1C2=O)C[C@@](O)(C(C)=O)C[C@@H]3O[C@H]1C[C@H](N)[C@H](O)[C@H](C)O1 [Daunorubicin]	42.1	29.5	9.69	12.2	13.1	1030	51.1	90.1	201	14.9	218	339	22	110	384	475	285	153	227	87.8
COc1cc2c(cc1-c1c(C)noc1C)ncc1[nH]c(=O)n([C@H](C)c3ccccn3)c12 [I-BET 151]	43.5	937	178	529	738	7150	159	4370	3150	129	1140	4210	3240	950	1940	9290	6810	> 10000	584	1760
CN1CC[C@H](c2c(O)cc(O)c3c(=O)cc(-c4ccccc4Cl)oc23)[C@H](O)C1 [Flavopiridol]	25.4	27.2	24.8	17.7	61	122	40.3	108	24.8	46.6	131	273	42.8	70.8	82.5	69.5	140	84.4	64.7	84.6
O=C1c2c(O)ccc(O)c2C(=O)c2c(NCCNCCO)ccc(NCCNCCO)c21 [Mitoxantrone]	< 2.5	7.36	< 2.5	< 2.5	< 2.5	1120	10	41.7	10.9	5.31	10.7	144	12.8	142	570	266	1280	141	314	108
COc1cc(Nc2ncc3c(n2)-c2ccc(Cl)cc2C(c2c(F)cccc2OC)=NC3)ccc1C(=O)O [Alisertib]	149	168	67.8	327	249	8100	229	5390	2410	38.1	37.4	1580	873	4880	306	> 10000	> 10000	> 10000	> 10000	6140
CCCOc1ccn2c(C(C)=O)cc(-c3ccccc3S(C)(=O)=O)c2c1 [GSK-2801]	> 10000	> 10000	> 10000	> 10000	> 10000	> 10000	> 10000	> 10000	> 10000	> 10000	> 10000	> 10000	> 10000	> 10000	> 10000	> 10000	> 10000	> 10000	> 10000	> 10000
CCN(CCCOc1ccc2c(Nc3cc(CC(=O)Nc4cccc(F)c4)[nH]n3)ncnc2c1)CCOP(=O)(O)O [Barasertib]	11.7	37.6	7.07	986	203	> 10000	20.9	1900	5010	19.4	> 10000	> 10000	> 10000	> 10000	> 10000	> 10000	> 10000	> 10000	> 10000	6910
CC[C@]1(O)C[C@H]2CN(CCc3c([nH]c4ccccc34)[C@@](C(=O)OC)(c3cc4c(cc3OC)N(C=O)[C@H]3[C@@](O)(C(=O)OC)[C@H](OC(C)=O)[C@]5(CC)C=CCN6CC[C@]43[C@@H]65)C2)C1 [Vincristine]	< 2.5	< 2.5	< 2.5	< 2.5	6.14	5020	< 2.5	7.19	8.77	< 2.5	6.92	20.7	7.58	6.18	8.68	27.5	> 10000	5.35	8.25	8.35
CN(Cc1cnc2nc(N)nc(N)c2n1)c1ccc(C(=O)N[C@@H](CCC(=O)O)C(=O)O)cc1 [Methotrexate]	> 10000	869	65.1	99	53.9	> 10000	93.3	> 10000	> 10000	30.9	> 10000	> 10000	25.7	106	132	> 10000	> 10000	267	136	> 10000
